Assays:
Homo sapiens = organism: Homo sapiens; assay: Selectivity ratio of Kd for full length recombinant truncated non-catalytic N-terminal transmembrane helix containing C-terminal 4xHis tagged human CYP2A13dH expressed in Escherichia coli to Kd for full length recombinant truncated non-catalytic N-terminal transmembrane helix containing C-terminal 4xHis tagged human CYP2A6dH expressed in Escherichia coli
Cytochrome P450 2A6 = target: T1, Cytochrome P450 2A6 (Homo sapiens, UniProt P11509); assay: Binding affinity to full length recombinant truncated non-catalytic N-terminal transmembrane helix containing C-terminal 4xHis tagged human CYP2A6dH expressed in Escherichia coli by HTS assay; assay type: ADME
T1 sequence (P11509 whole entry): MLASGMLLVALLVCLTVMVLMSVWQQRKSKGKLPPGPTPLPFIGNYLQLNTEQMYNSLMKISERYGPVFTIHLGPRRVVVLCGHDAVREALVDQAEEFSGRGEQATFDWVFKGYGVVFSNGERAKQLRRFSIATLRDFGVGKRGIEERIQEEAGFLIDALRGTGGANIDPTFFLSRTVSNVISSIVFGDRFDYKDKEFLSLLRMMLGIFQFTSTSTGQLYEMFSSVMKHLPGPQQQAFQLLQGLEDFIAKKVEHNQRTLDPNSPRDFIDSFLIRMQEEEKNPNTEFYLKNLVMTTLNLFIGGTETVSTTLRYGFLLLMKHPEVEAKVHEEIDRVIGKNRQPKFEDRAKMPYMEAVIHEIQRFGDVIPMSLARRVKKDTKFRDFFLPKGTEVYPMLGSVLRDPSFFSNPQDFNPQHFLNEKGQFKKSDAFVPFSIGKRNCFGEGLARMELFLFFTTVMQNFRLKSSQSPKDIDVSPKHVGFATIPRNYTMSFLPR

| SMILES | Selectivity ratio (Homo sapiens) | Kd (Cytochrome P450 2A6) |
| --- | --- | --- |
| CC1CN(Cc2cccc(Cl)c2Cl)CC(C)O1 (stereo unspecified) | 12.9 |  |
| Fc1ccccc1CN1CCOCC1 |  | Not Active |
| Fc1cccc(Cl)c1CN1CCOCC1 |  | Not Active |
| Brc1ccccc1CN1CCOCC1 |  | Not Active |
| Cc1ccccc1CN1CCOCC1 |  | Not Active |
| Clc1ccccc1CN1CCOCC1 |  | Not Active |
